Measured values: patent publication US6747060B2, “Non-natural galanin receptor ligands” (Kemia, Inc., priority 2002, dated 2004)
Entries after “also recorded” stand apart in the source; their conditions may differ. Read-outs that look alike come from different tables or passages of the source. Non-standard residues stand in square brackets, D forms with d. Residues, ends and D or L forms follow the SMILES beside them. *: point of attachment. Fmoc = O=C(OCC1c2ccccc2-c2ccccc21)*; AMC = Cc1cc(=O)oc2cc(N*)ccc12; Cha = N[CH](CC1CCCCC1)C(=O)O

Experiments:
human GalR1 = target: T1, human GalR1 (Homo sapiens, UniProt P47211); conditions: antagonists, literature reports; cited from earlier work
T1 sequence (P47211 1-349): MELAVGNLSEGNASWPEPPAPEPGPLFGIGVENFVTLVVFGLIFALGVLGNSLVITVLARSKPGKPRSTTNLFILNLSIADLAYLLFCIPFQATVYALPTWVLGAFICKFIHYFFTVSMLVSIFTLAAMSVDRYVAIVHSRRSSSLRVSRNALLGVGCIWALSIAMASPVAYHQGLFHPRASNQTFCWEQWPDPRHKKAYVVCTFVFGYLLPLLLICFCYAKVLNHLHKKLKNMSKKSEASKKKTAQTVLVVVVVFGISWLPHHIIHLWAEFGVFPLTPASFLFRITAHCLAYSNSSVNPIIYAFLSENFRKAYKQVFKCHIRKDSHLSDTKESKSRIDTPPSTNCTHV

galanin receptors = experiment: [125I]-galanin displacement, equilibrium binding in rat ventral hippocampal membranes; conditions: membranes from rat ventral hippocampus
Experimental: (§1) The mixtures of ligands and individual compounds were screened to displace [^125I]-galanin in equilibrium binding assay using membrane preparations from rat hippocampi, rich in galanin binding sites as described in detail previously^11. Effect of galnon on basal and forskolin-stimulated cAMP production were performed essentially as described by Valkna et al.^12 in membranes from rat ventral hippocampi.

adenylate cyclase = adenylate cyclase assay (basal and forskolin-stimulated cAMP production) in membranes from rat ventral hippocampi; format: biochemical
Experimental: as §1

galanin binding sites = experiment: autoradiographic [125I]-galanin binding assay on rat spinal cord sections; conditions: rat spinal cord sections L4, L5; galnon at 1, 3 and 5 μM
Experimental: Rats were decapitated, the spinal cord lumbar segments L4 and L5 were dissected out, rapidly frozen, cut in a cryostat and processed for the autoradiographic ligand binding assay of Young and Kuhar^13, as described previously^14. Galnon was added at 1, 3 and 5 μM concentration. The sections were processed in a BAS3000 Bio-Imagine Analyzer (Fuji) and quantified and then exposed to Hyperfilm-Max X-ray film (Arnersham Pharmacia Biotech).

PTZ-induced seizures = PTZ-induced seizures in mice
Experimental: The experiments were performed on C57B1 male mice (weight 20-30 g). Animals to be treated with galanin, or M35 were anaesthetized with ketamine (100 mg/kg i.p.) and xylazine (15 mg/kg i.p.) and stereotaxically implanted i.c.v. with guide cannulae (0.6 mm internal diameter). Postoperative recovery was 3-5 days. Galanin, or M35 were injected into the lateral brain ventricle of freely moving mice by means of Hamilton microsyringe in the amount 0.5 nmol, in 0.5 μl, at a rate […]. Control animals were treated with saline.
Galnon was dissolved in the 50% DMSO in saline and administered i.p. in a dose of 2 mg/kg […] prior to PTZ injection (when the effect of galnon alone was studied) or […] after M35 injection (in co-administration studies). Control animals were treated with 50% DM50 in saline.
Seizures were induced by i.p. injection of PTZ (Research Biochemicals, Natick, Massachusetts) in a dose of 40 mg/kg (when studying the effects of galanin only, or galnon only) or 30 mg/kg (when studying the effect of M35 and galnon+M35). The animals were placed in individual Plexiglas cages and videotaped for 15 min after PTZ administration. Seizures were analyzed off-line by a unbiased investigator and quantified using the following scale: 0: no motor seizures; 1: staring, mouth, or facial movements; 2: head nodding or isolated twitches; 3: unilateral bilateral forelimb clonus; 4: rearing; 5: rearing and falling; 6: tonic extension of hind limbs or death. The latency of each behavioral seizure type and the highest seizure score were recorded. […] Statistical methods used: t-test (latency) and Mann-Whitney (seizure score).

[1] = system: self sustaining status epilepticus; experiment: self sustaining status epilepticus (SSSE) induced by PPS in rats; format: in vivo
Experimental: The effects of intrahippocampal galnon administration was evaluated in rats. SSSE consisted of recurrent limbic seizures of varying intensity (stages 1-5), which lasted for 12-18 h after PPS was discontinued. Behavioral seizures were accompanied by high-frequency (13+Hz) and amplitude (1+mV) discharges with the duration of individual events between 30 s and 3 min. Between the seizures, ictal spikes with the amplitude of 0.8 mV and more and frequency of 3 Hz and less were continuously generated (spike frequency of 3 Hz and more was recognized as a seizure)^5.

[2] = equimolar galnon into hippocampus before M35 5 nmol, 7 min PPS
[3] = galnon 1 nmol, control rats injected with scrambled PNA

COC(=O)C1=C[C@@H](O)[C@@H](O)[C@H](O)[C@@H]1Oc1c(Cl)c(C)c(Cl)c2c1C(=O)[C@@]1(O2)C(OC)=CC(=O)C=C1C(=O)OC [Sch 202596]
IC50 (human GalR1): 1.4 µM

Cc1cc(=O)oc2cc(NC(=O)C(CCCCN)NC(=O)C(CC3CCCCC3)NC(=O)OCC3c4ccccc4-c4ccccc43)ccc12 (stereo not drawn) [galnon, 1-[5-amino-1-(4-methyl-2-oxo-2H-chromen-7-ylcarbamoyl)-pentylcarbamoyl]-2-cyclohexyl-ethyl-carbamic acid 9H-fluoren-9-ylmethyl ester] (Fmoc-[Cha]-Lys-{AMC}; configuration not given here)
Ki (galanin receptors): 4.8 µM | EC50 (adenylate cyclase; basal, read-out: EC50, M of inhibition of adenylate cyclase activity (basal)): 8 µM | EC50 (adenylate cyclase; forskolin stimulated, read-out: EC50, M of inhibition of adenylate cyclase activity (forskolin stimulated)): 10 µM | displacement of [125I]-galanin, autoradiographic signal (galanin binding sites): significant increase in binding as compared to controls was only seen at the concentration of 5 μM | effect on seizure-facilitating effect of M35 (PTZ-induced seizures; M35 i.c.v. co-administered with galnon i.p., PTZ 30 mg/kg): completely abolished | maximal seizure score (PTZ-induced seizures; PTZ 40 mg/kg i.p., 2 mg/kg i.p. 15 min prior to PTZ, scale 0-6): 1.45 | anticonvulsant effect compared with galanin i.c.v. 0.5 nmol (PTZ-induced seizures; PTZ 40 mg/kg, galnon 2 mg/kg i.p.): comparable to that of galanin | behavioral side effects (PTZ-induced seizures; mice, galnon 2 mg/kg i.p.): No obvious behavioral side effects | anticonvulsant effect in the presence of GalR antagonist M35 ([1]; M35 0.5 nmol pretreatment): attenuated; also recorded: abolished | duration of SSSE [1, 2]: 37 ± 8 min | total seizure time [1, 2]: 13 ± 4 min | effect on self-sustaining seizures ([1]; galnon 1 nmol, PNA1-pretreated animals (GalR1 down-regulated)): no effect | reduction of duration of SSSE [1, 3]: 7 fold | reduction of total seizure time [1, 3]: 9 fold | effect on SSSE ([1]; intrahippocampal injection 10 min after the end of PPS): attenuated SSSE in a dose dependent manner | SSSE duration ([1]; intrahippocampal, maximal dose 5 nmol, 30 min PPS): 28 ± 8 min

dithiipin-1,1,4,4-tetroxide
IC50 (human GalR1): 0.17 µM
